Key:
Assay type in all cases: in vivo
[1] = system: Italian ryegrass (Lolium multiflorum); assay: Test B pre-/postemergence plant response; details: for Ryegrass, Italian plant response rating: 8 g ai/ha
Text: (§1) Seeds of plant species selected from blackgrass (Alopecurus myosuroides), downy bromegrass (Bromus tectorum), green foxtail (Setaria viridis), Italian ryegrass (Lolium multiflorum), wheat (Triticum aestivum), wild oat (Avena fatua), catchweed bedstraw (Galium aparine), bermudagrass (Cynodon dactylon), surinam grass (Brachiaria decumbens), cocklebur (Xanthium strumarium), corn (Zea mays), large crabgrass (Digitaria sanguinalis), woolly cupgrass (Eriochloa villosa), giant foxtail (Setaria faberii), goosegrass (Eleusine indica), johnsongrass (Sorghum halepense), kochia (Kochia scoparia), lambsquarters (Chenopodium album), morningglory (Ipomoea coccinea), eastern black (E.B.) nightshade (Solanum ptycanthum), yellow nutsedge (Cyperus esculentus), pigweed (Amaranthus retroflexus), common ragweed (Ambrosia elation), Russian thistle (Salsola iberica), soybean (Glycine max), common (oilseed) sunflower (Helianthus annuus), and velvetleaf (Abutilon theophrasti) were planted and treated preemergence with test chemicals formulated in a non-phytotoxic solvent mixture which included a surfactant.
(§2) At the same time, plants selected from these crop and weed species and also winter barley (Hordeum vulgare), canarygrass (Phalaris minor), chickweed (Stellaria media) and windgrass (Apera spica-venti) were treated with postemergence applications of some of the test chemicals formulated in the same manner. Plants ranged in height from 2 to 18 cm (1- to 4-leaf stage) for postemergence treatments.
(§3) Plant species in the flooded paddy test consisted of rice (Oryza sativa), umbrella sedge (Cyperus difformis), ducksalad (Heteranthera limosa) and barnyardgrass (Echinochloa crus-galli) grown to the 2-leaf stage for testing. At time of treatment, test pots were flooded to 3 cm above the soil surface, treated by application of test compounds directly to the paddy water, and then maintained at that water depth for the duration of the test. Treated plants and controls were maintained in a greenhouse for 13 to 15 days, after which time all species were compared to controls and visually evaluated. Plant response ratings, summarized in Table B, are based on a scale of 0 to 100 where 0 is no effect and 100 is complete control. A dash (-) response means no test result.

[2] = system: cocklebur (Xanthium strumarium); assay: Test B pre-/postemergence plant response; details: for Cocklebur plant response rating: 8 g ai/ha
Text: as §1, §2, §3

[3] = system: velvetleaf (Abutilon theophrasti); assay: Test B pre-/postemergence plant response; details: for Velvetleaf plant response rating: 8 g ai/ha
Text: as §1, §2, §3

[4] = system: bermudagrass (Cynodon dactylon); assay: Test B pre-/postemergence plant response; details: for Bermudagrass plant response rating: 8 g ai/ha
Text: as §1, §2, §3

[5] = system: lambsquarters (Chenopodium album); assay: Test B pre-/postemergence plant response; details: for Lambsquarters plant response rating: 8 g ai/ha
Text: as §1, §2, §3

[6] = system: Russian thistle (Salsola iberica); assay: Test B pre-/postemergence plant response; details: Preemergence
Text: as §1, §2, §3

soybean (Glycine max) = assay: Test B pre-/postemergence plant response; details: for Soybean plant response rating: 8 g ai/ha
Text: as §1, §2, §3

[7] = system: goosegrass (Eleusine indica); assay: Test B pre-/postemergence plant response; details: for Goosegrass plant response rating: 8 g ai/ha
Text: as §1, §2, §3

[8] = system: large crabgrass (Digitaria sanguinalis); assay: Test B pre-/postemergence plant response; details: for Crabgrass, Large plant response rating: 8 g ai/ha
Text: as §1, §2, §3

[9] = system: common ragweed (Ambrosia elation); assay: Test B pre-/postemergence plant response; details: for Ragweed plant response rating: 8 g ai/ha
Text: as §1, §2, §3

[10] = system: barnyardgrass (Echinochloa crus-galli); assay: Test B flooded paddy test plant response
Method in brief: (§4)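 Rice, umbrella sedge, ducksalad and barnyardgrass at 2-leaf stage; pots flooded to 3 cm, compounds applied into paddy water, depth held throughout. Greenhouse 13 to 15 days, then visual rating vs untreated controls on 0–100 scale (0 no effect, 100 complete control); dash means no test result.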

[11] = system: umbrella sedge (Cyperus difformis); assay: Test B flooded paddy test plant response
Method in brief: as §4

[12] = system: ducksalad (Heteranthera limosa); assay: Test B flooded paddy test plant response
Method in brief: as §4

rice (Oryza sativa) = assay: Test B flooded paddy test plant response
Method in brief: as §4

[13] = Postemergence, 16 g ai/ha, scale 0 to 100
[14] = Postemergence, 31 g ai/ha, scale 0 to 100, 0 no effect, 100 complete control
[15] = Postemergence, 62 g ai/ha, scale 0 to 100, 0 no effect, 100 complete control
[16] = Preemergence, 16 g ai/ha, scale 0 to 100 (0 no effect, 100 complete control)
[17] = Preemergence, 31 g ai/ha, 0 to 100 scale, 0 no effect, 100 complete control
[18] = Preemergence, 62 g ai/ha, scale 0 to 100
[19] = Flood (flooded paddy test), 62 g ai/ha, scale 0 to 100, 0 no effect, 100 complete control
[20] = Flood (flooded paddy test), 125 g ai/ha, scale 0 to 100, 0 no effect, 100 complete control
[21] = Flood, 31 g ai/ha, scale 0 to 100

In the case of `Cc1cc(-c2ccc(Cl)cc2)nn1-c1c(OS(=O)(=O)c2ccccc2)cnn(C)c1=O` [Compound 35], the “Ryegrass, Italian plant response rating” value ([1]; postemergence, 0-100 scale) is reported as 40, the “Plant response rating, Ryegrass, Italian” value [1, 13] is reported as 40 and the “Plant response rating, Ryegrass, Italian” value [1, 14] is reported as 90. The “Plant response rating, Ryegrass, Italian” value [1, 15] was 98, the “Plant response rating, Ryegrass, Italian” value [1, 16] was 100 and the “Plant response rating, Ryegrass, Italian” value [1, 17] was 100. The “Plant response rating, Ryegrass, Italian” value [1, 18] was 100, the “Ryegrass, Italian plant response rating” value ([1]; Preemergence, scale 0 to 100) was 100 and the “Cocklebur plant response rating” value ([2]; postemergence, 0-100 scale) was 0. The “Plant response rating, Cocklebur” value [2, 13] was 0, the “Plant response rating, Cocklebur” value [2, 14] was 0 and the “Plant response rating, Cocklebur” value [2, 15] was 0. For the same compound, the “Plant response rating, Cocklebur” value [2, 16] was 0, the “Plant response rating, Cocklebur” value [2, 17] was 0 and the “Plant response rating, Cocklebur” value [2, 18] was 0. The “Cocklebur plant response rating” value ([2]; Preemergence, scale 0 to 100) was 0, the “Velvetleaf plant response rating” value ([3]; postemergence, 0-100 scale) was 0 and the “Plant response rating, Velvetleaf” value [3, 13] was 0. The “Plant response rating, Velvetleaf” value [3, 15] was 0, the “Plant response rating, Velvetleaf” value [3, 16] was 0 and the “Plant response rating, Velvetleaf” value [3, 17] was 0. For the same compound, the “Plant response rating, Velvetleaf” value [3, 18] was 0, the “Velvetleaf plant response rating” value ([3]; Preemergence, scale 0 to 100) was 0 and the “Bermudagrass plant response rating” value ([4]; postemergence, 0-100 scale) was 40. The “Plant response rating, Bermudagrass” value [4, 13] was 65, the “Plant response rating, Bermudagrass” value [4, 14] was 100 and the “Plant response rating, Bermudagrass” value [4, 15] was 100. For the same compound, the “Bermudagrass plant response rating” value ([4]; Preemergence, scale 0 to 100 (0 no effect, 100 complete control)) was 98, the “Plant response rating, Bermudagrass” value [4, 16] was 98 and the “Plant response rating, Bermudagrass” value [4, 17] was 100. For the same compound, the “Plant response rating, Bermudagrass” value [4, 18] was 100, the “Lambsquarters plant response rating” value ([5]; postemergence, 0-100 scale) was 0 and the “Plant response rating, Lambsquarters” value [5, 13] was 0. The “Plant response rating, Lambsquarters” value [5, 14] was 0, the “Plant response rating, Lambsquarters” value [5, 15] was 0 and the “Plant response rating, Lambsquarters” value [5, 16] was 0. For the same compound, the “Plant response rating, Lambsquarters” value [5, 17] was 0, the “Plant response rating, Lambsquarters” value [5, 18] was 0 and the “Lambsquarters plant response rating” value ([5]; Preemergence, scale 0 to 100) was 0. For the same compound, the “Plant response rating, Russian Thistle” value ([6]; 16 g ai/ha, scale 0 to 100 (0 no effect, 100 complete control)) was 0, the “Plant response rating, Russian Thistle” value ([6]; 31 g ai/ha, 0 to 100 scale, 0 no effect, 100 complete control) was 0 and the “Plant response rating, Russian Thistle” value ([6]; 62 g ai/ha, scale 0 to 100) was 0. The “Russian Thistle plant response rating” value ([6]; 8 g ai/ha, scale 0 to 100) was 0, the “Soybean plant response rating” value (soybean (Glycine max); postemergence, 0-100 scale) was 0 and the “Plant response rating, Soybean” value (soybean (Glycine max); [13]) was 0. The “Plant response rating, Soybean” value (soybean (Glycine max); [15]) was 0, the “Plant response rating, Soybean” value (soybean (Glycine max); [16]) was 0 and the “Plant response rating, Soybean” value (soybean (Glycine max); [17]) was 0. The “Plant response rating, Soybean” value (soybean (Glycine max); [18]) was 0, the “Soybean plant response rating” value (soybean (Glycine max); Preemergence, scale 0 to 100) was 0 and the “Goosegrass plant response rating” value ([7]; postemergence, 0-100 scale) was 20. The “Plant response rating, Goosegrass” value [7, 13] was 40, the “Plant response rating, Goosegrass” value [7, 14] was 70 and the “Plant response rating, Goosegrass” value [7, 15] was 75. For the same compound, the “Plant response rating, Goosegrass” value [7, 16] was 100, the “Plant response rating, Goosegrass” value [7, 17] was 100 and the “Plant response rating, Goosegrass” value [7, 18] was 100. For the same compound, the “Goosegrass plant response rating” value ([7]; Preemergence, scale 0 to 100) was 80, the “Crabgrass, Large plant response rating” value ([8]; postemergence, 0-100 scale) was 60 and the “Plant response rating, Crabgrass, Large” value [8, 13] was 70. For the same compound, the “Plant response rating, Crabgrass, Large” value [8, 14] was 80, the “Plant response rating, Crabgrass, Large” value [8, 15] was 100 and the “Plant response rating, Crabgrass, Large” value [8, 16] was 100. For the same compound, the “Plant response rating, Crabgrass, Large” value [8, 17] was 100, the “Plant response rating, Crabgrass, Large” value [8, 18] was 100 and the “Crabgrass, Large plant response rating” value ([8]; Preemergence, scale 0 to 100) was 90. The “Ragweed plant response rating” value ([9]; postemergence, 0-100 scale) was 0, the “Plant response rating, Ragweed” value [9, 13] was 0 and the “Plant response rating, Ragweed” value [9, 14] was 0. For the same compound, the “Plant response rating, Ragweed” value [9, 15] was 0, the “Plant response rating, Ragweed” value [9, 16] was 0 and the “Plant response rating, Ragweed” value [9, 17] was 0. For the same compound, the “Plant response rating, Ragweed” value [9, 18] was 0, the “Ragweed plant response rating” value ([9]; Preemergence, scale 0 to 100) was 0 and the “Plant response rating, Barnyardgrass” value [10, 19] was 0. The “Plant response rating, Barnyardgrass” value [10, 20] was 0, the “Plant response rating, Barnyardgrass” value [10, 21] was 0 and the “Plant response rating, Sedge, Umbrella” value [11, 19] was 0. The “Plant response rating, Sedge, Umbrella” value [11, 20] was 0, the “Plant response rating, Sedge, Umbrella” value [11, 21] was 0 and the “Plant response rating, Ducksalad” value [12, 19] was 0. The “Plant response rating, Ducksalad” value [12, 20] was 0, the “Plant response rating, Ducksalad” value [12, 21] was 0 and the “Plant response rating, Rice” value (rice (Oryza sativa); [19]) was 0. The “Plant response rating, Rice” value (rice (Oryza sativa); [20]) was 0 and the “Plant response rating, Rice” value (rice (Oryza sativa); [21]) was 0.

Source: patent US20100267561A1, “HERBICIDAL PYRIDAZINONE DERIVATIVES” (priority 2007, published 2010)
